Experimental data from US12642794B2, “Dose regimens for use of LY3154207 in the treatment of dopaminergic CNS disorders” (Eli Lilly and Company, priority 2018, dated 2026).
Entries after “also recorded” stand apart in the source; their conditions may differ. Like-named read-outs stand apart in the source and are kept apart here.

Legend:
Assay type in all cases: in vivo, human
healthy volunteers [1] = assay: HBEA Part B adverse events; settings: 75 mg, all mild
From the text: HBEA is a single ascending dose study of a D1 receptor positive allosteric modulator LY3154207 in healthy volunteers. Study HBEA aims to determine the safety, tolerability, and peripheral and central pharmacokinetics (PK) of single ascending doses of LY3154207 in healthy subjects. Study HBEB aims to evaluate the effect of single-dose LY3154207 on sleep latency in sleep-deprived healthy male subjects as measured by a multiple sleep latency test (MSLT). HBEA was a Phase 1, 2-part, randomized, double-blind, placebo-controlled study in healthy males or females. Part A has a 3-period crossover design with 2 alternating, single-dose escalating cohorts, and subjects were randomized to LY3154207 (n=6) or placebo (n=3) in each cohort in each dosing period. Part B has a single-period, single-dose, 2-cohort design with cerebrospinal fluid (CSF) sampling, and subjects were randomized to LY3154207 (n=8) or placebo (n=4) in each cohort.
HBEA Part B is a study of Cerebrospinal fluid (CSF) and plasma pharmacokinetic (PK) profile following a single dose of LY3154207 in healthy volunteers. The objective of the study is to determine the CSF and plasma PK profile of LY3154207 in a single dose study m healthy volunteers. This study consisted of 2 cohorts in a single-dose, single-period, placebo-controlled, randomized, double-blind, parallel-group study. […]

[2] = tested on: sleep-deprived healthy male subjects; assay: HBEB sleep latency study: multiple sleep latency test (MSLT), Karolinska Sleepiness Scale; settings: for effect on wakefulness / sleep latency: single doses 15 mg to 75 mg
From the text: FIG. 2: HBEB, a Phase 1, single-dose, randomized, placebo-controlled, 4-period, incomplete crossover study in sleep-deprived healthy male subjects (n=17). Effects of a single dose of LY3154207 on wakefulness as measured by the multiple sleep latency test (MSLT) in sleep deprived healthy male subjects. Sleep latency is time from start of MSLT to first detection of sleep (minutes). […] CI=confidence interval: LS-least squares: MSLT=multiple sleep latency test.
Dose dependent activating adverse events were also observed in a single ascending dose study. To determine the effects of a single dose of LY3154207 was studied on wakefulness as measured by the multiple sleep latency test (MSLT) in sleep deprived healthy male subjects. HBEB was a Phase 1, single-dose, randomized, placebo-controlled, 4-period, incomplete crossover study in sleep-deprived healthy male subjects (n=17). Subjects were randomized to receive a single dose of either placebo, LY3154207 15, 30, or 75 mg (double-blind), or modafinil (open-label control). In each period, subjects were sleep deprived for approximately 26 hours before dosing and approximately 12 hours post-dose. MSLT was conducted every 2 hours until 10 hours post-dose. Analysis based on mixed-model repeated measures included treatment, period, time, and the treatment-by-time interaction as fixed effects, and subject as a random effect: overall sleep latency was the average of the 4 post-dose sleep latencies. All subjects are randomized to receive 4 out of 5 available single dose treatments (15, 30, 75 mg LY3154207, placebo or modafanil 200 mg) with all subjects receiving placebo. The washout period is at least 7 days. MSLT is the primary assessment of wakefulness. Secondary outcomes include the Karolinska Sleepiness Scale (KSS), EEG and a simple reaction performance task. Blood samples are collected to measure plasma concentrations of LY3154207 and modafinil. Seventeen subjects are enrolled and received at least one dose of study drug with sixteen subjects completing all 4 periods of the trial. A dose dependent increase in MSLT is observed with least square means (95% CI) difference compared to placebo of 5.2 minutes (3.3,7.1) for 75 mg, 3.2 minutes (1.4, 5.1) for 30 mg, 1.3 minutes (−0.6, 3.2) for 15 mg, as shown in FIG. 2. […] PK is linear with a Cmax and t1/2 of approximately 3 and 9 hours across the dose range.

[3] = HBEB plasma pharmacokinetics
From the text: Dose dependent activating adverse events were also observed in a single ascending dose study. To determine the effects of a single dose of LY3154207 was studied on wakefulness as measured by the multiple sleep latency test (MSLT) in sleep deprived healthy male subjects. HBEB was a Phase 1, single-dose, randomized, placebo-controlled, 4-period, incomplete crossover study in sleep-deprived healthy male subjects (n=17). Subjects were randomized to receive a single dose of either placebo, LY3154207 15, 30, or 75 mg (double-blind), or modafinil (open-label control). In each period, subjects were sleep deprived for approximately 26 hours before dosing and approximately 12 hours post-dose. MSLT was conducted every 2 hours until 10 hours post-dose. Analysis based on mixed-model repeated measures included treatment, period, time, and the treatment-by-time interaction as fixed effects, and subject as a random effect: overall sleep latency was the average of the 4 post-dose sleep latencies. All subjects are randomized to receive 4 out of 5 available single dose treatments (15, 30, 75 mg LY3154207, placebo or modafanil 200 mg) with all subjects receiving placebo. The washout period is at least 7 days. MSLT is the primary assessment of wakefulness. Secondary outcomes include the Karolinska Sleepiness Scale (KSS), EEG and a simple reaction performance task. […]

[4] = HBEC Part B pharmacokinetics, participants with PD; settings: for Cmax / AUC(0-t) / Tmax: human, oral, 75 mg; for AUC(0-t): read-out: AUC(0-24); for Tmax: read-out: tmax, median
Procedure: In this randomized, double-blind, placebo-controlled, multiple ascending dose, parallel-group study, HBEC, healthy subjects (Part A) and participants with PD (Part B) received once-daily doses of LY3154207 (15, 30, 75, or 150 mg in Part A and up to 75 mg in Part B) or placebo for 14 days, as illustrated in FIG. 3.
(§1) Study outcomes included 24-hour ambulatory blood pressure monitoring (ABPM), treatment-emergent adverse events (TEAEs), and PK assessments in both healthy subjects and participants with PD, as well as Movement Disorder Society-United Parkinson's Disease Rating Scale (MDS-UPDRS) assessments to evaluate the impact of LY3154207 on motor function in participants with PD. The objective was to explore the safety, tolerability, and pharmacokinetics (PK) of multiple oral daily dosing of LY3154207 in healthy subjects (Part A) and in participants with PD (Part B).

participants with PD = assay: HBEC motor examination subscore, MDS-UPDRS Part III; settings: 14-day treatment, 75 mg and 75 mg titration
Procedure: FIG. 4: Study HBEC, motor symptoms in PD patients in 14-day treatment with LY3154207. Participants with PD, treated with LY3154207, motor examination subscores compared to those treated with placebo, as measured by MDS-UPDRS Part III. Cohort 5 (LY 75 mg), Cohort 6 (LY 75 mg titration) (Participants with PD in Cohort 6 received 15 mg on Days 1-3 and 30 mg on Days 4-6), Cohort 5/6 (PBO).
as §1

healthy volunteers [5] = assay: HBEC cognition tests: Digit Symbol Substitution Test (DSST), Hopkins Verbal Learning Test (HVLT); settings: 15 mg
[6] = in vivo, participants with PD, Day 14, LY 75 mg (N = 8), geometric mean
[7] = in vivo, participants with PD, Day 14, LY 75 mg Titration (N = 8), geometric mean
[8] = participants with PD, LY 75 mg (N = 8), geometric mean

C[C@H]1c2cccc(CCC(C)(C)O)c2C[C@H](CO)N1C(=O)Cc1c(Cl)cccc1Cl [LY3154207]
subjects with treatment-related AEs (healthy volunteers [1]): 25% | MSLT sleep latency, least square means difference compared to placebo ([2]; single dose 15 mg): 1.3 min | MSLT sleep latency, least square means difference compared to placebo ([2]; single dose 30 mg): 3.2 min | MSLT sleep latency, least square means difference compared to placebo ([2]; single dose 75 mg): 5.2 min | effect on wakefulness / sleep latency [2]: improves wakefulness in a dose dependent manner; also recorded: linear and dose-dependent effect on sleep latency | effect on wakefulness / sleep latency ([2]; listed as LY3144207): increases wakefulness | alertness measured by the Karolinska sleepiness scale ([2]; single doses 15, 30, 75 mg): dose-dependent increase in alertness | linearity of PK [3]: linear | half-life ([3]; male, human, plasma, across the dose range): ~540 min | increase in AUC (0-24) in participants with PD versus healthy subjects ([4]; Day 14 after 75 mg): 42% | increase in Cmax in participants with PD versus healthy subjects ([4]; Day 14 after 75 mg): 25% | Cmax [4, 6]: 335 ng/mL | AUC(0-t) [4, 6]: 3050 ng·h/mL | Tmax ([4]; in vivo, participants with PD, Day 14, LY 75 mg (N = 8)): 2 h | Cmax [4, 7]: 400 ng/mL | AUC(0-t) [4, 7]: 3680 ng·h/mL | Tmax ([4]; in vivo, participants with PD, Day 14, LY 75 mg Titration (N = 8)): 2.5 h | exposure in participants with PD compared with healthy subjects ([4]; in vivo): slight increase | accumulation upon repeated dosing ([4]; participants with PD): minimal accumulation | CLss/F ([4]; participants with PD, Day 14, LY 75 mg (N = 8), geometric mean): 24.6 L/h | CLss/F ([4]; participants with PD, Day 14, LY 75 mg Titration (N = 8), geometric mean): 20.4 L/h | RAAUC(0-24) (accumulation ratio Day 14:Day 1) [4, 8]: 1.06 | RACmax (accumulation ratio Day 14:Day 1) [4, 8]: 1.05 | motor examination subscore, MDS-UPDRS Part III, compared to placebo (participants with PD): more consistent improvement | Hopkins Verbal Learning Test (HVLT), improvement from baseline relative to other arms (healthy volunteers [5]): largest average improvement from baseline | Digit Symbol Substitution Test (DSST), change from baseline relative to other arms (healthy volunteers [5]; both post dose time points): highest average change from baseline; also recorded: trend for better cognitive effects
